{"source": "ChEMBL document CHEMBL5291721", "about": "“A preclinical secondary pharmacology resource illuminates target-adverse drug reaction associations of marketed drugs” (Nat Commun, 2023); note: assay procedure not described here", "key": {"[1]": {"molecular_target": "T1, Corticotropin-releasing factor receptor 1 (Homo sapiens, UniProt P34998)", "T1 sequence (P34998 whole entry)": "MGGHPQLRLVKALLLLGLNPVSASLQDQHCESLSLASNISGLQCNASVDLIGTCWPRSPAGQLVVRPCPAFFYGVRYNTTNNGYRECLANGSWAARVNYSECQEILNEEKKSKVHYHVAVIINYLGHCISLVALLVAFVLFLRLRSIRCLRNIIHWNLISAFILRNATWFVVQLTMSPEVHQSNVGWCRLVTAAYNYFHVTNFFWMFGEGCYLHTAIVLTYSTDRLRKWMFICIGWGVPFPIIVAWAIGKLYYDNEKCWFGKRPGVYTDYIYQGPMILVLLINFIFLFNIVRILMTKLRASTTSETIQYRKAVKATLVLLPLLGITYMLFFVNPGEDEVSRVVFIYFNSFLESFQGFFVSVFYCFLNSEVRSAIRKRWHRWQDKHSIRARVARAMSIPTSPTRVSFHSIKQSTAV"}, "Substance-K receptor": {"molecular_target": "T2, Substance-K receptor (Homo sapiens, UniProt P21452)", "T2 sequence (P21452 whole entry)": "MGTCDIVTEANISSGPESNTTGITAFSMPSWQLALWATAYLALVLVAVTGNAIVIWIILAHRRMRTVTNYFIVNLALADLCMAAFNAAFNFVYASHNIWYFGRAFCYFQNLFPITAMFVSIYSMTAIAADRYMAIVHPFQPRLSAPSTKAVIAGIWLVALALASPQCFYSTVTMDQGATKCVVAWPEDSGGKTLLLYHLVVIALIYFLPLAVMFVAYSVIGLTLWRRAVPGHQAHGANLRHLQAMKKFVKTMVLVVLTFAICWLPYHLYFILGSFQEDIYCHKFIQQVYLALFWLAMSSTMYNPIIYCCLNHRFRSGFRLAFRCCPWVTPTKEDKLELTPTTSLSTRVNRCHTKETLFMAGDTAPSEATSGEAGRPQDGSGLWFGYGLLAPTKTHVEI"}, "[2]": {"molecular_target": "5-hydroxytryptamine receptor 6 (Homo sapiens, UniProt P50406)", "sequence (P50406 whole entry)": "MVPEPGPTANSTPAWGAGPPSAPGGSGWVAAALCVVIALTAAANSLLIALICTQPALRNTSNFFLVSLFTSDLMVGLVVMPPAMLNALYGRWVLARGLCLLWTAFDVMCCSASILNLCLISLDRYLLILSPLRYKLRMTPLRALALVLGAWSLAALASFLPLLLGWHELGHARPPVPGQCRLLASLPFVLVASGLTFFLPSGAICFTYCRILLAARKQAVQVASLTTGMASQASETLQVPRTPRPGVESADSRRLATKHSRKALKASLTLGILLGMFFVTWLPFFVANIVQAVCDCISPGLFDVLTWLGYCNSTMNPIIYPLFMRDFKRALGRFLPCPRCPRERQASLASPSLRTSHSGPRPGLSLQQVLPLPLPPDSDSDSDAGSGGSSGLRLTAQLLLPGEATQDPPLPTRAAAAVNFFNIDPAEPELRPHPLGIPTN"}, "[3]": {"molecular_target": "T3, Muscarinic acetylcholine receptor M5 (Homo sapiens, UniProt P08912)", "T3 sequence (P08912 whole entry)": "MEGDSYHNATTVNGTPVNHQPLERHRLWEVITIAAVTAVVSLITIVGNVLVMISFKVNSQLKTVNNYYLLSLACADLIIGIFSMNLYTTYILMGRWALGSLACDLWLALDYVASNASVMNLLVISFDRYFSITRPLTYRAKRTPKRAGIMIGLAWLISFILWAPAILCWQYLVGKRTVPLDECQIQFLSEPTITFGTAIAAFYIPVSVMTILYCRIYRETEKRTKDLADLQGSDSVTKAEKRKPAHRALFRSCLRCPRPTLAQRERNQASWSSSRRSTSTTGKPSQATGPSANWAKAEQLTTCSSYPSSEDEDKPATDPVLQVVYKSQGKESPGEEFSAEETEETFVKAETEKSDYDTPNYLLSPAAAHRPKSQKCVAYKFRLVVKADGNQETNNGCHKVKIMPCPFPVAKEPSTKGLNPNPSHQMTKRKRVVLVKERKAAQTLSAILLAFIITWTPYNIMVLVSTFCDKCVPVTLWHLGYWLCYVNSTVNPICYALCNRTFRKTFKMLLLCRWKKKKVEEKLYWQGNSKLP"}, "[4]": {"molecular_target": "Gamma-aminobutyric acid type B receptor subunit 1 (Homo sapiens, UniProt Q9UBS5)", "sequence (Q9UBS5 whole entry)": "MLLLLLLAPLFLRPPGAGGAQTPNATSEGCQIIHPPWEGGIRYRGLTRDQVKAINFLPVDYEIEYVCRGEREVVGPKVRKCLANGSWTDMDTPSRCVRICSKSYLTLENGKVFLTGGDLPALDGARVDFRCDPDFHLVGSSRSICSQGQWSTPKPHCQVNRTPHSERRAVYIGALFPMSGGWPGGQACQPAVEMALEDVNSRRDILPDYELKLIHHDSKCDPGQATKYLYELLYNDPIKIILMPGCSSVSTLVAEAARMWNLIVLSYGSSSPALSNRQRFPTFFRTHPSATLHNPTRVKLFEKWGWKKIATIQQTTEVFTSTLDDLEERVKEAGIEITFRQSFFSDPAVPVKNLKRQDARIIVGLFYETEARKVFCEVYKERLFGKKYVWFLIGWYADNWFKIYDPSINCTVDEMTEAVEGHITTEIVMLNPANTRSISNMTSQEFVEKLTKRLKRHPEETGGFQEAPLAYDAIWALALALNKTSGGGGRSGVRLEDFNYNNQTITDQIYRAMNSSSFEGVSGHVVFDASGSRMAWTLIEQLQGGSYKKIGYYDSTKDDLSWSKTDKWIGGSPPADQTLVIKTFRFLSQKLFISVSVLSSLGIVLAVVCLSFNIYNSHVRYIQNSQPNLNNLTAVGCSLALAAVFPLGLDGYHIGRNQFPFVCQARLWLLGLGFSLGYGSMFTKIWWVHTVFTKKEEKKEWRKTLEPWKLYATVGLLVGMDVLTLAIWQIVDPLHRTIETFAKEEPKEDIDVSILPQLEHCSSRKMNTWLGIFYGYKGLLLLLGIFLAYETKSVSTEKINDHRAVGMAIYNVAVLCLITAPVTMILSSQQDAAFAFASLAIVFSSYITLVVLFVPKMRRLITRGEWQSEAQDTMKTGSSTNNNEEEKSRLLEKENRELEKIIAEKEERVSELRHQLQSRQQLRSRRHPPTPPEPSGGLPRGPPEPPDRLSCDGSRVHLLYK"}, "Cannabinoid receptor 1": {"molecular_target": "Cannabinoid receptor 1 (Homo sapiens, UniProt P21554)", "sequence (P21554 whole entry)": "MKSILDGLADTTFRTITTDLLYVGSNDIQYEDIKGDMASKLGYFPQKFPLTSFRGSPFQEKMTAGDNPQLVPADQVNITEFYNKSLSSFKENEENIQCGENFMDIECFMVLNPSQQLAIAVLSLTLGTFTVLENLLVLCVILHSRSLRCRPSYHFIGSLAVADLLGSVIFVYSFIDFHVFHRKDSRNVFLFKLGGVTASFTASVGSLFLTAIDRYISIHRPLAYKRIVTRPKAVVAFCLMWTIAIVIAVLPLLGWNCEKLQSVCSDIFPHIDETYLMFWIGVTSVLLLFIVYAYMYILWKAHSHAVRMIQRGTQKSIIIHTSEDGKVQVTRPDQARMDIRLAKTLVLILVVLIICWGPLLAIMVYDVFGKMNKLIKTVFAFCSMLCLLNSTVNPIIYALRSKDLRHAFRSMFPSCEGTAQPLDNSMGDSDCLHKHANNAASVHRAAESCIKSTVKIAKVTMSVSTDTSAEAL", "format": "functional"}, "[5]": {"molecular_target": "T4, Peroxisome proliferator-activated receptor gamma (Homo sapiens, UniProt P37231)", "T4 sequence (P37231 whole entry)": "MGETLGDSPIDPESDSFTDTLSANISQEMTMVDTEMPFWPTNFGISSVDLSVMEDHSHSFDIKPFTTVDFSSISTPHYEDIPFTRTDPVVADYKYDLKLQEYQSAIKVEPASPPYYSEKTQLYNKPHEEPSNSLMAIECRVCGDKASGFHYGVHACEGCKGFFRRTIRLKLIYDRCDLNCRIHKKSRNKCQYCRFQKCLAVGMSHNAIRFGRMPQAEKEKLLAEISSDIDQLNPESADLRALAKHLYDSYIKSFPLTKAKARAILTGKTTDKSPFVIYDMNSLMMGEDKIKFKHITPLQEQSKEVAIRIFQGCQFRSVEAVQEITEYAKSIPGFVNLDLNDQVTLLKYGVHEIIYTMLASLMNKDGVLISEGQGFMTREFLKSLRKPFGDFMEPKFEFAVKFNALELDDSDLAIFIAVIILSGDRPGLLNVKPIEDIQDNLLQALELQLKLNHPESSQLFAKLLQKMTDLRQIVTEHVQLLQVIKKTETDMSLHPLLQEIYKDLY", "format": "functional"}, "D(1A) dopamine receptor": {"molecular_target": "D(1A) dopamine receptor (Homo sapiens, UniProt P21728)", "sequence (P21728 whole entry)": "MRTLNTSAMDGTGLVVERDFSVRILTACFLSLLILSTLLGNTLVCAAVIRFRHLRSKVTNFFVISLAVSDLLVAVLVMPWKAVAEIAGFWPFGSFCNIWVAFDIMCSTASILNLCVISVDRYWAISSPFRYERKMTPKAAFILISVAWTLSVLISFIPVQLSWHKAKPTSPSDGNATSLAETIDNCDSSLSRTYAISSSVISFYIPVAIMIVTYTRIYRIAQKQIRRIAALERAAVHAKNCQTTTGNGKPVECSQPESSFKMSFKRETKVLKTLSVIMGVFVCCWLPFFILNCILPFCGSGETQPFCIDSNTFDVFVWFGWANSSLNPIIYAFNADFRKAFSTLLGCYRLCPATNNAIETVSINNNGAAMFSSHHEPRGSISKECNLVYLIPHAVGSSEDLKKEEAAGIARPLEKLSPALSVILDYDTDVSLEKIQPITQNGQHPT"}, "[6]": {"molecular_target": "T5, Muscarinic acetylcholine receptor M1 (Homo sapiens, UniProt P11229)", "T5 sequence (P11229 whole entry)": "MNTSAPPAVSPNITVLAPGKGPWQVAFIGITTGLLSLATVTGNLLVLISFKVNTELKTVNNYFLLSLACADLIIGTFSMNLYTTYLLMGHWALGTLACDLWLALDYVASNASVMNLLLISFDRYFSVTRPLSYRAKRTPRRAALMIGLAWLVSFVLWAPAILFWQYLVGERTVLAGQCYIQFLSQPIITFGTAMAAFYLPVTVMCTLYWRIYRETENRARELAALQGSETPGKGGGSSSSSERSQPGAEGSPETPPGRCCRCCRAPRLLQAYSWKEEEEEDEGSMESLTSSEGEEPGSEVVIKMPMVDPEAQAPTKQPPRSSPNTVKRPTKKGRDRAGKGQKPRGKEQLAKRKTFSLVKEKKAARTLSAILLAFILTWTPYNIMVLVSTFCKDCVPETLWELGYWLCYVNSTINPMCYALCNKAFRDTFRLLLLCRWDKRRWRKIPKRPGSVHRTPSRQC"}}}
{"smiles": "O=C(O)COCCN1CCN(C(c2ccccc2)c2ccc(Cl)cc2)CC1", "note": "(centres undefined) [CETIRIZINE]", "values": [{"measurement": "AC50", "setting": "[1]", "result": "> 30", "unit": "µM"}]}
{"smiles": "C[C@@H]1C[C@H]2[C@@H]3C[C@H](F)C4=CC(=O)C=C[C@]4(C)[C@@]3(F)[C@@H](O)C[C@]2(C)[C@@]1(OC(=O)c1ccco1)C(=O)SCF", "note": "[FLUTICASONE FUROATE]", "values": [{"measurement": "AC50", "setting": "Substance-K receptor", "result": "> 10", "unit": "µM"}, {"measurement": "AC50", "setting": "[2]", "result": "> 10", "unit": "µM"}, {"measurement": "AC50", "setting": "[3]", "result": "> 10", "unit": "µM"}, {"measurement": "AC50", "setting": "[4]", "result": "> 10", "unit": "µM"}, {"measurement": "AC50", "setting": "Cannabinoid receptor 1", "result": "> 10", "unit": "µM"}]}
{"smiles": "OC[C@H]1O[C@@H](n2cnc3c2NC=NC[C@H]3O)C[C@@H]1O", "note": "[PENTOSTATIN]", "values": [{"measurement": "AC50", "setting": "[5]", "result": "> 30", "unit": "µM"}]}
{"smiles": "NC[C@H]1CC[C@H](C(=O)Oc2ccc(CCC(=O)O)cc2)CC1", "note": "[CETRAXATE]", "values": [{"measurement": "AC50", "setting": "D(1A) dopamine receptor", "result": "> 30", "unit": "µM"}]}
{"smiles": "CN(C)C/C=C/C(=O)Nc1cc2c(Nc3ccc(F)c(Cl)c3)ncnc2cc1O[C@H]1CCOC1", "note": "[AFATINIB]", "values": [{"measurement": "AC50", "setting": "[5]", "result": "> 30", "unit": "µM"}]}
{"smiles": "CC(O)(CS(=O)(=O)c1ccc(F)cc1)C(=O)Nc1ccc(C#N)c(C(F)(F)F)c1", "note": "(centres undefined) [BICALUTAMIDE]", "values": [{"measurement": "AC50", "setting": "[2]", "result": "> 10", "unit": "µM"}, {"measurement": "AC50", "setting": "[3]", "result": "> 10", "unit": "µM"}, {"measurement": "AC50", "setting": "[4]", "result": "> 10", "unit": "µM"}, {"measurement": "AC50", "setting": "[1]", "result": "> 30", "unit": "µM"}, {"measurement": "AC50", "setting": "Cannabinoid receptor 1", "result": "> 10", "unit": "µM"}]}
{"smiles": "CC(C)(Oc1ccc(CCNC(=O)c2ccc(Cl)cc2)cc1)C(=O)O", "note": "[BEZAFIBRATE]", "values": [{"measurement": "AC50", "setting": "[5]", "result": "> 30", "unit": "µM"}]}
{"smiles": "CN[C@@H](C)[C@@H](O)c1ccccc1", "note": "[PSEUDOEPHEDRINE]", "values": [{"measurement": "AC50", "setting": "[1]", "result": "> 30", "unit": "µM"}]}
{"smiles": "COc1ccc2c(C(=S)N(C)CC(=O)O)cccc2c1C(F)(F)F", "note": "[TOLRESTAT]", "values": [{"measurement": "AC50", "setting": "[6]", "result": "> 30", "unit": "µM"}, {"measurement": "AC50", "setting": "D(1A) dopamine receptor", "result": "> 30", "unit": "µM"}]}
{"smiles": "CN(C)CCCN1c2ccccc2CCc2ccccc21", "note": "[IMIPRAMINE]", "values": [{"measurement": "AC50", "setting": "Substance-K receptor", "result": "> 10", "unit": "µM"}, {"measurement": "AC50", "setting": "[2]", "result": 0.313, "unit": "µM"}, {"measurement": "AC50", "setting": "[3]", "result": 0.33, "unit": "µM"}, {"measurement": "AC50", "setting": "[1]", "result": "> 30", "unit": "µM"}, {"measurement": "AC50", "setting": "Cannabinoid receptor 1", "result": "> 10", "unit": "µM"}]}
{"smiles": "CN(Cc1cnc2nc(N)nc(N)c2n1)c1ccc(C(=O)N[C@@H](CCC(=O)O)C(=O)O)cc1", "note": "[METHOTREXATE]", "values": [{"measurement": "AC50", "setting": "[1]", "result": "> 30", "unit": "µM"}]}
{"smiles": "O=S1(=O)CCN(CN2CCS(=O)(=O)NC2)CN1", "note": "[TAUROLIDINE]", "values": [{"measurement": "AC50", "setting": "[6]", "result": "> 30", "unit": "µM"}, {"measurement": "AC50", "setting": "D(1A) dopamine receptor", "result": "> 30", "unit": "µM"}]}
{"smiles": "O=C(/C=C/c1cccc(S(=O)(=O)Nc2ccccc2)c1)NO", "note": "[BELINOSTAT]", "values": [{"measurement": "AC50", "setting": "[6]", "result": "> 30", "unit": "µM"}, {"measurement": "AC50", "setting": "Substance-K receptor", "result": "> 10", "unit": "µM"}, {"measurement": "AC50", "setting": "[2]", "result": 2.47, "unit": "µM"}, {"measurement": "AC50", "setting": "[3]", "result": "> 10", "unit": "µM"}, {"measurement": "AC50", "setting": "[4]", "result": "> 10", "unit": "µM"}, {"measurement": "AC50", "setting": "Cannabinoid receptor 1", "result": "> 10", "unit": "µM"}, {"measurement": "AC50", "setting": "D(1A) dopamine receptor", "result": "> 30", "unit": "µM"}]}
{"smiles": "CC(C)c1cccc(C(C)C)c1O", "note": "[PROPOFOL]", "values": [{"measurement": "AC50", "setting": "[5]", "result": "> 30", "unit": "µM"}]}
